The target in this assay is SARS‐CoV‐2 RdRp complex (nsp12, nsp7, nsp8) (Severe acute respiratory syndrome coronavirus 2, UniProt P0DTD1). Kind of assay: Fluorescence-based RdRp polymerase assay (SYBR Green I RNA extension). The class given is biochemical. The settings on record: for residual activity (RA) of the SARS‐CoV‐2 RdRp complex: 10 μM screening, AUC with compound / AUC of non-inhibited reaction x 100; for remaining activity at 10 µM: 50 min, read-out: residual activity (RA) of the SARS‐CoV‐2 RdRp complex.

For the molecule “1‐(3,5‐Dichlorophenyl)‐3‐(3‐(Trifluoromethyl)phenyl)guanidine Hydrochloride [Compound 54]”, the “residual activity (RA) of the SARS‐CoV‐2 RdRp complex” value (from here on “residual activity (RA)”) is reported as 100%.

As to “3,4‐Dichloro‐N‐(6‐(Trifluoromethyl)‐1H‐Benzo[d]imidazol‐2‐yl)benzamide [Compound 57]”, the “residual activity (RA)” value is 100%.

`CCCCNC(=O)Nc1cc(C(=O)OC)cc(C(=O)OC)c1` [Compound 5, Dimethyl 5‐(3‐Butylureido)isophthalate]: the remaining activity at 10 µM worked out at 100%.

`COC(=O)c1cc(NC(=O)Nc2cccc(C#N)c2)cc(C(=O)OC)c1` [Compound 6, Dimethyl 5‐(3‐(3‐Cyanophenyl)ureido)isophthalate]: the remaining activity at 10 µM came out at 100%. Same read-out and setting: as for `COC(=O)c1cc(NC(=O)Nc2ccc(C#N)cc2)cc(C(=O)OC)c1` [Compound 7, Dimethyl 5‐(3‐(4‐Cyanophenyl)ureido)isophthalate], the figure is 100%. On the same count and under the same terms, as for `COC(=O)c1cc(NC(=O)Nc2ccc(S(N)(=O)=O)cc2)cc(C(=O)OC)c1` [Compound 8, Dimethyl 5‐(3‐(4‐Sulfamoylphenyl)ureido)isophthalate], the figure is 100%; as for `CCOC(=O)c1cccc(NC(=O)Nc2cc(C(=O)OC)cc(C(=O)OC)c2)c1` [Compound 10, Dimethyl 5‐(3‐(3‐(Ethoxycarbonyl)phenyl)ureido)isophthalate], 100%. The same measure, in the same setting: as for `COC(=O)c1cc(NC(=O)Nc2cc([N+](=O)[O-])cc([N+](=O)[O-])c2)cc(C(=O)OC)c1` [Compound 12, Dimethyl 5‐(3‐(3,5‐Dinitophenyl)ureido)isophthalate], the figure is 100%; as for `COC(=O)c1cc(NC(=O)Nc2cccc(C(=O)O)c2)cc(C(=O)OC)c1` [Compound 13, 3‐(3‐(3,5‐Bis(methoxycarbonyl)phenyl)ureido)benzoic Acid], 100%. With `COC(=O)c1cc(NC(=O)Nc2ccncc2)cc(C(=O)OC)c1` [Compound 14, Dimethyl 5‐(3‐(Pyridin‐4‐yl)ureido)isophthalate], the remaining activity at 10 µM turned out to be 100%.

`COC(=O)c1cc(NC(=O)Nc2cccc([N+](=O)[O-])c2)cc(C(=O)OC)c1` [Compound 17, Dimethyl 5‐(3‐(3‐Nitrophenyl)ureido)isophthalate]: the remaining activity at 10 µM is 51%.

Regarding `O=C(Nc1cccc([N+](=O)[O-])c1)Nc1cccc([N+](=O)[O-])c1` [Compound 18, 1,3‐Bis(3‐nitrophenyl)urea], the remaining activity at 10 µM is 100%.

As to `COC(=O)c1cc(NC(=O)Nc2cccc([N+](=O)[O-])c2)cc(C(=O)O)c1` [Compound 20, 3‐(Methoxycarbonyl)‐5‐(3‐(3‐Nitrophenyl)ureido)benzoic Acid], the “residual activity (RA)” value is “complete loss of activity” and the remaining activity at 10 µM stood at 100%. In the same order, the values of `O=C(Nc1cc(C(=O)O)cc(C(=O)O)c1)Nc1cccc([N+](=O)[O-])c1` [Compound 21, 5‐(3‐(3‐Nitrophenyl)ureido)isophthalic acid] are “complete loss of activity” and 100%. For `COC(=O)c1cc(NC(=O)Nc2ccc([N+](=O)[O-])cc2)cc(C(=O)OC)c1` [Compound 22], the remaining activity at 10 µM amounted to 50%. The same measure, in the same setting: then `COC(=O)c1cc(NC(=O)Nc2ccccc2)cc(C(=O)OC)c1` [Compound 23], with 100%.

Regarding `COC(=O)c1cc(NC(=O)Nc2ccc(C)cc2)cc(C(=O)OC)c1` [Compound 25], the remaining activity at 10 µM was 100%. As to `COC(=O)c1cc(NC(=O)Nc2cccc(F)c2)cc(C(=O)OC)c1` [Compound 26], the remaining activity at 10 µM turned out to be 100%. For `COc1ccc(NC(=O)Nc2cc(C(=O)OC(C)C)cc(C(=O)OC(C)C)c2)c(OC)c1` [Compound 27], the remaining activity at 10 µM was found to be 100%.

With `CC(=O)c1cccc(NC(=O)Nc2cc(C(=O)OC(C)C)cc(C(=O)OC(C)C)c2)c1` [Compound 28], the remaining activity at 10 µM worked out at 100%.

With `O=C(Nc1cccc([N+](=O)[O-])c1)Nc1ccc(Cl)c(C(F)(F)F)c1` [Compound 29], the remaining activity at 10 µM was 58%.

On to `O=C(Nc1cccc([N+](=O)[O-])c1)Nc1ccc2ccccc2c1` [Compound 30], for which the remaining activity at 10 µM came out at 73%. Still for that read-out and setting: as for `O=C(Nc1cccc([N+](=O)[O-])c1)Nc1ccccc1Cc1ccccc1` [Compound 31], the figure is 78%; as for `O=C(Nc1ccc(C(F)(F)F)cc1)Nc1cccc([N+](=O)[O-])c1` [Compound 32], 100%. Turning to `O=C(Nc1ccc(Cl)cc1)Nc1cccc([N+](=O)[O-])c1` [Compound 33], the remaining activity at 10 µM turned out to be 100%. The same measure, in the same setting: as for `O=C(Nc1ccc(C(=O)O)cc1)Nc1cccc([N+](=O)[O-])c1` [Compound 34], the figure is 100%; as for `CCNS(=O)(=O)c1ccc(NC(=O)Nc2cccc([N+](=O)[O-])c2)cc1` [Compound 35], 100%. For `COC(=O)c1ccc(C(=O)OC)c(NC(=O)Nc2cccc([N+](=O)[O-])c2)c1` [Compound 36], the remaining activity at 10 µM is 100%. Same read-out and setting: as for `CC(=O)Nc1cccc(NC(=O)Nc2cccc([N+](=O)[O-])c2)c1` [Compound 37], the figure is 100%; as for `COc1cc(NC(=O)Nc2cccc([N+](=O)[O-])c2)cc(OC)c1` [Compound 38], 100%; as for `O=C(Nc1cccc([N+](=O)[O-])c1)Nc1cnccn1` [Compound 39], 100%.

With `O=C(Nc1cccc([N+](=O)[O-])c1)NC1CC1` [Compound 40], the remaining activity at 10 µM was 100%.

On to `O=C(Nc1ccc([N+](=O)[O-])cc1)Nc1cc(Cl)cc(Cl)c1` [Compound 41], for which the remaining activity at 10 µM was 40%.

On to `O=C(Nc1ccc([N+](=O)[O-])cc1)Nc1ccccc1Cc1ccccc1` [Compound 42], for which the remaining activity at 10 µM amounted to 63%. The same measure, in the same setting: then `O=[N+]([O-])c1cccc(NC(=S)Nc2ccc(Cl)c(C(F)(F)F)c2)c1` [Compound 43], with 77%; and `O=[N+]([O-])c1cccc(NC(=S)Nc2ccccc2Cc2ccccc2)c1` [Compound 44], with 100%.

On to `O=C(Cc1ccc([N+](=O)[O-])cc1)Nc1cc(Cl)cc(Cl)c1` [Compound 49, N‐(3,5‐Dichlorophenyl)‐2‐(4‐Nitrophenyl)acetamide], for which the remaining activity at 10 µM was determined as 100%. The same measure, in the same setting: then `O=C(Cc1cc(Cl)cc(Cl)c1)Nc1ccc([N+](=O)[O-])cc1` [Compound 52, 2‐(3,5‐Dichlorophenyl)‐N‐(4‐Nitrophenyl)acetamide], with 100%; and `O=C(Nc1cc(Cl)cc(Cl)c1)C(=O)Nc1cccc(C(F)(F)F)c1` [Compound 53, N ^1‐(3,5‐Dichlorophenyl)‐N ^2‐(3‐(Trifluoromethyl)phenyl)oxalamide], with 100%. Take `O=C(Nc1cc(Cl)cc(Cl)c1)c1nc2ccc(C(F)(F)F)cc2[nH]1` [Compound 58, N‐(3,5‐Dichlorophenyl)‐6‐(Trifluoromethyl)‐1H‐Benzo[d]imidazole‐2‐Carboxamide]: the remaining activity at 10 µM is 100%.
